Data set [1] relates to NCI-H226, non-small cell lung cancer cell line. The data set can be described thus: NCI HTCL in vitro screen, NCI-H226. Type of data set: cell-based, human. The following applies: for GI50: Homo sapiens, NCI-H226, log concentration that reduced cell growth by 50%, read-out: Cytotoxicity log GI50, NCI-H226 (converted). An excerpt:
(§1) This assay involves determination of a test agent's effect on growth parameters against a panel of approximately 60 human tumor cell lines, mostly derived from solid tumors.

Data set [2] has as its system HCT-116, colon cancer cell line. Description: NCI HTCL in vitro screen, HCT116. It is filed as cell-based, human. The following applies: for GI50: Homo sapiens, HCT-116, log concentration that reduced cell growth by 50%, read-out: Cytotoxicity log GI50, HCT116 (converted).
Excerpt: as §1

The test system of data set [3] is OVCAR-3, ovarian cancer cell line. Description: NCI HTCL in vitro screen, OVCAR-3. Type of data set: cell-based, human. The following applies: for GI50: Homo sapiens, OVCAR-3, log concentration that reduced cell growth by 50%, read-out: Cytotoxicity log GI50, OVCAR-3 (converted).
Excerpt: as §1

The next data set has as its system SK-Me15, melanoma. Description: NCI HTCL in vitro screen, SK-Me15. Type of data set: cell-based, human. To be noted: log concentration that reduced cell growth by 50%; for GI50: Homo sapiens, read-out: Cytotoxicity log GI50, SK-Me15 (converted).
Excerpt: as §1

Data set [4] has as its system SF-268 CNS tumor cell line. The data set can be described thus: NCI HTCL in vitro screen, SF-268. Type of data set: cell-based. To be noted: Homo sapiens, log concentration that reduced cell growth by 50%, read-out: Cytotoxicity log GI50, SF-268 (converted).
Excerpt: as §1

In data set [5] the test system is SF-295 CNS tumor cell line. Description: NCI HTCL in vitro screen, SF-295. It is filed as cell-based, human. To be noted: for GI50: Homo sapiens, SF-295, log concentration that reduced cell growth by 50%, read-out: Cytotoxicity log GI50, SF-295 (converted).
Excerpt: as §1

In data set [6] the test system is panel of approximately 60 human tumor cell lines. The data set can be described thus: NCI HTCL in vitro screen, mean over all cell lines. It is filed as cell-based. To be noted: mean over all 60 cell lines; for GI50: Homo sapiens, read-out: Mean log GI50 (converted). Here is the method:
Compounds 1-7 and 13 were tested in National Cancer Institute's HTCL screen (M. Grever et al., Seminars Oncol. 1992, 19, 622-638; A. Monks et al., J. Natl. Cancer Inst. 1991, 83, 757-766). This assay involves determination of a test agent's effect on growth parameters against a panel of approximately 60 human tumor cell lines, mostly derived from solid tumors.

In data set [7] the test system is T1, tubulin.
T1 construct: ITP IC50 ± SD; other: 10 μM tubulin; ICB (% inhib ± SD); effect on tubulin polymerization; other: relative to combretastatin A-4; Ha
The data set can be described thus: Inhibition of tubulin polymerization (ITP). It is filed as biochemical. The following applies: for IC50: 10 μM tubulin, read-out: ITP IC50 ± SD.

In data set [8] the test system is T1, tubulin. The data set can be described thus: Inhibition of [3H]colchicine binding to tubulin (ICB). The following applies: for ICB (% inhib ± SD): 5 μM [3H]colchicine, 1 μM tubulin.
Data set [9] relates to panel of approximately 60 human tumor cell lines. The following applies: previously reported (L. Li et al. 1994); cited from earlier work.
Data set [10] concerns tubulin. To be noted: previously reported (background); read-out: inhibition of tubulin polymerization IC50; cited from earlier work.
Data set [11] relates to OVCAR-3 ovarian cell line. To be noted: mice bearing OVCAR-3 tumor; previously reported (background); cited from earlier work.
Data set [12] concerns K-562, leukemia cell line. The data set can be described thus: NCI 60 human tumor cell line (HTCL) in vitro screen, K562. It is filed as cell-based. The following applies: log concentration that reduced cell growth by 50%, read-out: Cytotoxicity log GI50, K562 (converted).
Excerpt: as §1

For data set [13], the system named is RXF-393, renal cancer cell line. Description: NCI HTCL in vitro screen, RXF-393. It is filed as cell-based, human. To be noted: log concentration that reduced cell growth by 50%; for GI50: Homo sapiens, RXF 393, read-out: Cytotoxicity log GI50, RXF-393 (converted).
Excerpt: as §1

In data set [14] the test system is T1, tubulin. The following applies: data from literature (Kuo 1993; Hamel 1996; Xia 1998); read-out: ITP IC50 ± SD; cited from earlier work.

Like-named read-outs stand apart in the source and are kept apart here.

On to `O=c1cc(-c2ccccc2F)[nH]c2cc3c(cc12)OCO3` [Compound 1, 2′-Fluoro-6,7-(methylenedioxy)-2-phenyl-4-quinolone], for which the GI50 – broadly, the concentration that inhibits growth by half – in data set [1] was 0.447 µM; in data set [2], 0.0603 µM; in data set [3], 81.3 nM; in the data set on SK-Me15, melanoma it was 0.0209 µM; in data set [4], 2.29 µM; in data set [5] it was 0.055 µM. The 50% growth inhibitory concentration (GI50) in data set [6] was 0.135 µM. Also, the IC50 (as a rule, the point on the concentration scale where inhibition reaches its midpoint) in the data set on tubulin [7] is 0.68 ± 0.02 µM; with tubulin [10], 850 nM. In the data set on tubulin [8] (5 μM inhibitor), the “ICB (% inhib ± SD)” value amounted to 39 ± 2 % inhib. For the same molecule, in data set [9], the “average log G150 value in the HTCL screen” value is −6.47. In addition, in data set [11], the “prolonging the life span of mice bearing the tumor” value is reported as 130%.
For `CCOC(=O)COc1cc(-c2ccccc2F)nc2cc3c(cc12)OCO3` [Compound 2, 2′-Fluoro-6,7-(methylenedioxy)-2-phenyl-4-(O-ethylacetate)quinoline], the melting point (commonly the temperature of the solid-liquid transition) fell in the range of 119 to 120 °C. The GI50 in data set [12] is 38 µM. Moreover, the GI50 in data set [1] was over 100 µM. Further, the GI50 in data set [2] was 72.4 µM. Moreover, in [13], the GI50 was over 100 µM. The GI50 in the data set with SK-Me15, melanoma was 72.4 µM. The GI50 in data set [4] was over 100 µM. For the same molecule, the GI50 in [5] was over 100 µM. In addition, the GI50 in data set [6] was 79.4 µM. Besides, the IC50 in the data set on tubulin [7] was over 40 µM.
The molecule `O=C(O)COc1cc(-c2ccccc2F)nc2cc3c(cc12)OCO3` [Compound 3, 2′-Fluoro-6,7-(methylenedioxy)-2-phenyl-4-(O-acetic acid)quinoline] showed a melting point of over 300 °C. In data set [12], the GI50 was over 100 µM. Moreover, the GI50 in data set [1] is over 100 µM. For the same molecule, in [2], the GI50 is over 100 µM. Besides, the GI50 in [3] is over 100000 nM. In addition, the GI50 in data set [13] was over 100 µM. Also, the GI50 in the data set with SK-Me15, melanoma is over 100 µM. In data set [4], the GI50 was over 100 µM. Further, in data set [5], the GI50 was over 100 µM. The GI50 in data set [6] is over 100 µM. Moreover, the IC50 with tubulin [7] is over 20 µM.
Consider `CCOC(=O)CCCOc1cc(-c2ccccc2F)nc2cc3c(cc12)OCO3` [Compound 4, 2′-Fluoro-6,7-(methylenedioxy)-2-phenyl-4-(O-ethyl 4′-butyrate)quinoline], for which the melting point lay in the range of 93 to 94 °C. Further, in data set [2], the GI50 was over 100 µM. Also, the GI50 in the data set on SK-Me15, melanoma is 57.5 µM. Moreover, in data set [4], the GI50 was over 100 µM. For the same molecule, the GI50 in data set [6] was 47.9 µM. The IC50 in the data set on tubulin [7] is over 40 µM.
For `O=C(O)CCCOc1cc(-c2ccccc2F)nc2cc3c(cc12)OCO3` [Compound 5, 2′-Fluoro-6,7-(methylenedioxy)-2-phenyl-4-(O-ethyl 4′-butylacetic acid)quinoline], the melting point was over 300 °C. The GI50 in data set [6] was 4.68 µM. In addition, the IC50 in the data set with tubulin [7] was determined as 12 ± 3 µM.
On to `Fc1ccccc1-c1cc(=S)c2cc3c(cc2[nH]1)OCO3` [Compound 6, 2′-Fluoro-6,7-(methylenedioxy)-2-phenylquino-4-thione], for which the GI50 was 56.2 µM in data set [12]; 16.6 µM in [1]; 5.5 µM in data set [2]; 21400 nM in data set [3]; 29.5 µM in data set [13]; 4.07 µM in the data set on SK-Me15, melanoma. In addition, the figures for the GI50 in [4], in [5] and in data set [6] were 20 µM, 11.7 µM and 15.5 µM, respectively.
`CC(C)(C)OC(=O)n1c(-c2ccccc2F)cc(=O)c2cc3c(cc21)OCO3` [Compound 7, N-Boc-2′-fluoro-6,7-(methylenedioxy)-2-phenyl-4-quinolone]: the GI50 in data set [12] was over 100 µM; in data set [1], 0.0251 µM; in data set [2] it was 0.0447 µM; in data set [3] it was 32.4 nM; in data set [13], over 100 µM; in data set [5] it was 0.117 µM. Besides, in data set [6], the GI50 is 0.589 µM. Also, the “fold more active than 1 against NCI-H226” value in data set [1] (relative to compound 1) was about 20 fold. Further, in data set [2] (relative to compound 1), the “cytotoxicity relative to 1, HCT-116” value is “equipotent with 1”. For the same molecule, in [3] (relative to compound 1), the “cytotoxicity relative to 1, OVCAR-3” value is “equipotent with 1”. The “cytotoxicity relative to 1, SF-295” value in data set [5] (relative to compound 1) is listed as “less active than 1”. Also, the “effect on tubulin polymerization” value in the data set with tubulin [7] is “moderate activity”. In addition, the IC50 in the data set with tubulin [7] came to 3.2 ± 1 µM.
Consider `Oc1cc(-c2ccccc2F)nc2ccc(N3CCCC3)cc12` [Compound 13], for which the concentration for 50% growth inhibition (GI50) in data set [12] is 0.0324 µM; in [13], under 0.01 µM; with SK-Me15, melanoma, under 0.01 µM; in [4], 0.0389 µM. Also, the “Cytotoxicity log GI50, RXF-393” value in data set [13] is on record as under −8.00 M. Besides, in the data set with SK-Me15, melanoma, the “Cytotoxicity log GI50, SK-Me15” value was under −8.00 M. The “Mean log GI50” value in data set [6] is −7.62 M. In the data set on tubulin [7], the IC50 is 0.46 µM. The results for the “ICB (% inhib ± SD)” value in the data set with tubulin [8] (1 μM inhibitor) and with tubulin [8] (5 μM inhibitor) were 76 ± 5 % inhib and 93 ± 1 % inhib, respectively. Besides, the “inhibition of [3H]colchicine binding to tubulin” value with tubulin [8] (relative to combretastatin A-4) is reported as “nearly as active as the highly potent combretastatin A-4”.
Turning to `O=c1[nH]c(C=Cc2ccccc2)nc2ccccc12` [Compound 18, 2-styrylquinazolin-4(3H)-one], the concentration for half-maximal inhibition (IC50) in the data set on tubulin [14] was 5 ± 0.6 µM.

The record behind these values is patent US6569870B1, “Fluorinated quinolones as antimitotic and antitumor agents” (The University of North Carolina at Chapel Hill, priority 2000, dated 2003).
